Series [1] is described as follows: LDH cytotoxicity assay, CC50 determination on Calu-3 cells. Type of series: cell-based. Particulars: human. How it is done: In short, 2x10^4 Calu-3 cells were seeded per well in 96-well cell culture plates in IMDM medium containing 10% FBS, 100 units/mL penicillin, and 100 µg/mL streptomycin two days before treatment. Prior to the treatment, the medium was removed, and the cells were washed once with PBS. The cells were subsequently treated in quadruplicates with 600, 500, 400, 350, 300, 250, 200, 150, or 100 µM zapnometinib dissolved in DMSO and diluted in IMDM medium containing 5% FBS, 100 units/mL penicillin, and 100 µg/mL streptomycin. The DMSO concentration upon treatment was 1%. A DMSO control was supplied with 1% DMSO (without zapnometinib). An untreated control (spontaneous LDH release control) was supplied with cell culture medium (5% FBS). Viability assessment with LDH assay was performed after 24 and 48 h treatment. Therefore, 10 µL 10X Lysis Buffer were added to one well of each quadruplicate treatment set (maximum LDH release control) and the plates were incubated 45 min at 37 °C and 5% CO2. […] After 30 min incubation in the dark at RT, 50 µL stop solution were added to the wells and the absorbance was read at 490 nm and 680 nm. The absorbance measured at 680 nm was subtracted from the absorbance at 490 nm and the %Viability was calculated using the following formula: […]

Series [2] concerns human PBMCs. Kind of series: Cytokine and chemokine levels in LPS-stimulated human PBMCs (ELISA). The series is classed as cell-based. The note with it: 1 µg/mL LPS, 10 µg/mL zapnometinib, 6 h, vs untreated control. How it is done:
Human peripheral blood mononuclear cells (PBMCs) were isolated from healthy volunteers registered with the Biobank of the Department of Immunology at the University of Tuebingen, after informed consent documented in writing. Ethical approval was obtained upon review by the Ethics Board of the Medical Faculty of the Eberhard Karls University Tuebingen and the University Hospital Tuebingen (887/2020BO2). Briefly, 50 ml whole blood (roughly 5x10^7 PBMCs) of two donors were taken in 50 ml syringes (BD Biosciences, Franklin Lakes, New Jersey, USA) supplied with heparin-natrium (100.000 I.E./ml; Braun, Melsungen, Germany). The whole blood was mixed with PBS (Gibco, Carlsbad, California, USA) in a 1:1 ratio in 50 ml tubes (Greiner Bio-One, Frickenhausen, Germany), and PBMCs were subsequently isolated from the whole blood by density gradient centrifugation using Histopaque®-1077 (Sigma-Aldrich, St. Louis, Missouri, USA) as density gradient medium. Five millilitres of plasma per donor were preserved for cell culture medium preparation. The PBMCs were then purified by washing them twice with PBS.
2x10^6 human PBMCs from two donors each were suspended in 1 mL RPMI 1640 medium (Gibco) containing 5% autologous plasma, 1% penicillin/streptomycin (Sigma-Aldrich), and 1% L-glutamine (Sigma-Aldrich) and were treated with 1 μg/mL LPS from E. coli O55:B5 (prepared in PBS) and 10 μg/mL zapnometinib (prepared in DMSO and diluted in cell culture medium to a final concentration of 0.1% DMSO) for 6 h at 37°C and 5% CO2. The supernatants (cell culture medium) were collected and stored at -20°C until analysis by ELISA. Ready-to-use ELISA kits (Invitrogen, Waltham, Massachusetts, USA) were used according to the manufacturer’s instructions to determine the levels of the following cytokines: IL-1β, IL-6, IL-8, IP-10, MCP-1, MIP-1α, and TNF-α. Briefly, the samples and standards were applied to ELISA plates pre-coated with specific antibodies targeting the cytokines of interest. Biotinylated detection antibodies binding to the cytokines of interest were added to the wells followed by a horseradish peroxidase (HRP)-streptavidin conjugate, which binds to the biotinylated detection antibodies. Unbound cytokines, detection antibodies, and HRP-streptavidin conjugate were removed by washing. Tetramethylbenzidine (TMB) substrate was added, and the color change in the wells served as the readout for the ELISA. Optical density (OD) at 450 nm was measured using a SpectraMAX Plus 384 microplate reader. For IL-1β, IL-8, MCP-1, and TNF-α the OD was also read at a reference wavelength of 620 nm, and for IL-6 at a reference wavelength of 550 nm. For IP-10 and MIP-1α no reference wavelength was used. Cytokine and chemokine concentrations were calculated following the manufacturer’s instructions for interpolating unknown concentrations from a standard curve.
In general terms: ELISA stands for enzyme-linked immunosorbent assay.

Several values for one entry are separate records, joined by “and”; a condition that tells them apart may be missing. Equal values may be shown once.

By CC50 is commonly meant the concentration at which the toxic effect on the cells reaches its halfway point. Higher therefore signals lower toxicity to the cells.

Regarding `O=C(O)c1ccc(F)c(F)c1Nc1ccc(I)cc1Cl` [zapnometinib], the CC50 at 24 h in series [1] (24 h treatment) was 532 µM and 218 µg/mL. Also, the CC50 at 48 h in series [1] (48 h treatment) is 471 µM and 193 µg/mL. For the same molecule, in series [2], the IL-1β expression level entry is reported as “significantly reduced”, the IL-6 expression level result is given as “significantly reduced”, the IL-8 expression level entry is “significantly reduced” and the IP-10 expression level result is “significantly reduced”. Also, in series [2], the MCP-1 expression level entry is recorded as “significantly reduced”, the MIP-1α expression level entry is listed as “significantly reduced” and the TNF-α expression level entry is “significantly reduced”.

Source of the values: PMC12498288 (Frontiers in Immunology, 2025).
